In the assay the target is ALK tyrosine kinase receptor (Homo sapiens, UniProt Q9UM73, L1196M). The assay can be described thus: Binding affinity to human recombinant ALK L1196M mutant (1093 to 1411 residues) assessed as inhibition constant using 5'FAM-KKSRGDYMTMQIG-CONH2 peptide as substrate in presence of ATP by micro-fluidic mobility shift assay.
ALK tyrosine kinase receptor, sequence (Q9UM73 19-1620 L1196M limits assumed): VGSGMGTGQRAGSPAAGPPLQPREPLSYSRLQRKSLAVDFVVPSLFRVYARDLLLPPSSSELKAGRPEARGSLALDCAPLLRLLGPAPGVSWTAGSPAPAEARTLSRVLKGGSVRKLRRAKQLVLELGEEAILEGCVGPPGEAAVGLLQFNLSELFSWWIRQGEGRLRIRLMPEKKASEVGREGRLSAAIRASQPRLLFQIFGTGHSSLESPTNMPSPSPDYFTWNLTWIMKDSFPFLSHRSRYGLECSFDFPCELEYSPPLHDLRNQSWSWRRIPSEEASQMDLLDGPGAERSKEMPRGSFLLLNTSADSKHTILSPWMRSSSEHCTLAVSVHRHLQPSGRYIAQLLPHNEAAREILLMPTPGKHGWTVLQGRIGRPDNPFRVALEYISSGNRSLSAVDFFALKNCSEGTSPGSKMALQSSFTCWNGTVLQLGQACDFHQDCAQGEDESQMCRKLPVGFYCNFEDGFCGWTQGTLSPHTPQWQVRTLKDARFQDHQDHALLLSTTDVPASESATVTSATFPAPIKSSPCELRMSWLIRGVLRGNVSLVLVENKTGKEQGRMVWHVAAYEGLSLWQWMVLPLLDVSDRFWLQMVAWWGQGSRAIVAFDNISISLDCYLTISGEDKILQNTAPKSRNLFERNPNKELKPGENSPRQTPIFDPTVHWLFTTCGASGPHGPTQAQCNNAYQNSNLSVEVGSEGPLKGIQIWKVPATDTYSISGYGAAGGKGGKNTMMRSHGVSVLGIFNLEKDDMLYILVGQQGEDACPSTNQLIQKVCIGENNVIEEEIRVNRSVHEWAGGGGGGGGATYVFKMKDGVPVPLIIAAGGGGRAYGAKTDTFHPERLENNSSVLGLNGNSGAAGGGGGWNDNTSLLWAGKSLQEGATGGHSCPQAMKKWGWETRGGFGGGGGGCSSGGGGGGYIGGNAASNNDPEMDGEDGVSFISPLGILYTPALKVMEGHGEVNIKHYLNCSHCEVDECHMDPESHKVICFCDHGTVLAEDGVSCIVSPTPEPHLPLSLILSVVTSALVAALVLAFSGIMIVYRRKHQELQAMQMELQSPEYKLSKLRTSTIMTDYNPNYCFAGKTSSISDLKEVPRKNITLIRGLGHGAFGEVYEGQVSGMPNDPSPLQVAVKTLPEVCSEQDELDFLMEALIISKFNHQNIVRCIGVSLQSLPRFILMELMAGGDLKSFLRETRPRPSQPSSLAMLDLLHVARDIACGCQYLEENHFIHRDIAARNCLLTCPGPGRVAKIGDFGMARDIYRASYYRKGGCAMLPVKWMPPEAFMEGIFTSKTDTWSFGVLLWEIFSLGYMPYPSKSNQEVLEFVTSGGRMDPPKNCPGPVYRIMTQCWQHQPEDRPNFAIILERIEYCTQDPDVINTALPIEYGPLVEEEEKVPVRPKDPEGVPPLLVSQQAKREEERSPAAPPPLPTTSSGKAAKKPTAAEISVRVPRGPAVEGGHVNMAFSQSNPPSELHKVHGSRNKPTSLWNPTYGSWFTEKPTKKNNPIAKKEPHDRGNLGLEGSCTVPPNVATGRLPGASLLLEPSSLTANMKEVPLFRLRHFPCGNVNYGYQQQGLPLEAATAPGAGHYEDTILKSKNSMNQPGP

As to `CN1Cc2nn(C)c(C#N)c2-c2cnc(N)c(c2)OCc2cc(F)ccc2C1=O`, the Ki – broadly, a dissociation constant, usually derived from enzyme kinetics or from competition with a known ligand – came to 273 nM.

Source of the values: ChEMBL document CHEMBL5244206, “Recent encounters with atropisomerism in drug discovery” (Bioorg Med Chem Lett, 2018).
